In patent US20240238232A1, “COMPOSITIONS AND METHODS FOR THE REDUCTION OR TREATMENT OF INSULIN RESISTANCE AND METABOLIC CONDITIONS” (AXCELLA HEALTH INC., priority 2018, published 2024):
Values joined by “and” are separate entries in the source; they are usually repeats but may differ in a detail not shown here. Equal entries are not always repeated.

System: STAM™ model (NASH)
Assay: NAFLD activity score (HE staining, Kleiner criteria) in STAM mice, Example 2
Assay type: in vivo, mouse
Set-up: key to NAFLD Activity Score (NAS), mean / NAFLD Activity Score: raw data: NAS = steatosis (0-3) + inflammation (0-2) + ballooning (0-2); key to NAFLD Activity: Steatosis Score, mean / NAFLD Activity: Steatosis Score: raw data: steatosis grade 0-3 (Kleiner criteria)
Conditions: A-1 1500 mg/kg twice daily, OCA 30 mg/kg once daily
Method: Amino Acid Composition A-1 and Obeticholic acid (6α-ethyl-chenodeoxycholic acid; “OCA”) were tested for their ability to treat NASH in the STAM™ model (Stelic Institute & Co., Tokyo, Japan; Saito K. et al., 2015 Sci Rep 5:12466). Two additional groups of normal C57BL/6 mice fed standard chow and vehicle treated STAM™ mice were included as controls. All animals receiving treatment or vehicle were treated starting at 6 weeks until 9 weeks of age. Compounds were administered via oral gavage, with a dose volume of 10 ml/kg. Amino Acid Composition A-1 was administered twice daily at a dose of 1500 mg/kg, and OCA was administered once daily at a dose of 30 mg/kg.
STAM™ is a model for non-alcoholic steatohepatitis (NASH) and hepatocellular carcinoma (HCC), developed by SMC Laboratories, Inc. and created by the combination of chemical and dietary interventions using C57BL/6 mice (Saito K. et al., 2015 Sci Rep 5:12466). Mice are treated with a low dose of streptozotocin at birth and fed a high fat diet starting at 4 weeks. Evidence of fatty liver is present by 5 weeks, followed by NASH by 7 weeks and fibrosis by 9 weeks.
NASH was induced in 53 male mice by a single subcutaneous injection of 200 μg streptozotocin (STZ, Sigma-Aldrich, USA) solution 2 days after birth and feeding with high fat diet (HFD, 57 kcal % fat, Cat #HFD32, CLEA Japan, Japan) after 4 weeks of age.
Amino Acid Composition A-1, OCA and Vehicle (described below) were administered by oral route in a volume of 10 mL/kg. Amino Acid Composition A-1 was solubilized in deionized water to 150 mg/ml (10 X). OCA (Advanced ChemBlocks Inc.) was resuspended in 0.5% methycellulose in water to 3 mg/ml (10 X). Amino Acid Composition A-1 was administered at a dose of 1500 mg/kg twice daily (9 am and 7 pm). OCA was administered at a dose of 30 mg/kg once daily (9 am).
Liver samples from mice in Group 2 (Vehicle), 3 (Amino Acid Composition A-1) and 4 (OCA) were used for the following assays. For HE staining, sections were cut from paraffin blocks of liver tissue prefixed in Bouin's solution and stained with Lillie-Mayer's Hematoxylin (Muto Pure Chemicals Co., Ltd., Japan) and eosin solution (Wako Pure Chemical Industries). NAFLD Activity score (NAS) was calculated according to the criteria of Kleiner (Kleiner D. E. et al., Hepatology, 2005; 41:1313).
The non-alcoholic fatty liver disease (NAFLD) activity score was assessed via histological analysis and grading of H&E stained liver sections from each animal. This score is the sum of three individual scores that grade the degree of steatosis (0-3), inflammation (0-2), and hepatocyte ballooning (0-2). All tissues were graded using the scoring criteria of Kleiner et al. (Kleiner et al. Hepatology. 2005; 41(6): 1313-21). Data are mean±standard deviation (stdev). […] Both Amino Acid Composition A-1 and OCA were statistically different from vehicle for NAFLD Activity Score when compared using Dunnett's multiple comparisons test (Amino Acid Composition A-1 p=0.0001, OCA p=0.0001).

[1] = STAM mice, oral, 6 to 9 weeks of age

Q: With `CC[C@H]1[C@@H](O)[C@@H]2[C@H](CC[C@]3(C)[C@@H]([C@H](C)CCC(=O)O)CC[C@@H]23)[C@@]2(C)CC[C@@H](O)C[C@@H]12` [OCA, 6α-ethyl-chenodeoxycholic acid] as the compound, how does the “NAFLD Activity Score (NAS), mean” value [1] read?
A: 2.9+/−0.74 and 2.9

Q: And the “NAFLD Activity: Ballooning Score, mean” value [1]?
A: 0.3+−0.48 and 0.3

Q: And the “NAFLD Activity: Inflammation Score, mean” value [1]?
A: 1.8

Q: And the “NAFLD Activity: Steatosis Score, mean” value [1]?
A: 0.8

Q: And the “NAFLD Activity Score: raw data” value (individual STAM mice)?
A: 2 (3×) and 4 (2×) and 3 (5×)

Q: And the “NAFLD Activity: Ballooning Score: raw data” value (individual STAM mice)?
A: 0 (7×) and 1 (3×)

Q: What about the “NAFLD Activity: Inflammation Score: raw data” value (individual STAM mice) of the same compound?
A: 1 (4×) and 2 (4×) and 3 (2×)

Q: And the “NAFLD Activity: Steatosis Score: raw data” value (individual STAM mice)?
A: 1 (8×) and 0 (2×)
